{
  "source": "patent US20050112573A1",
  "about": "“Method of detecting toxic substance” (priority 2001, published 2005)",
  "system": "yeast genes (level of expressed mRNA)",
  "assay": "DNA chip analysis of expressed mRNA of yeast genes after 2 h culture with a toxic chemical substance",
  "format": "cell-based, Saccharomyces cerevisiae S288C",
  "in_short": "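S. cerevisiae S288C grown at 25° C in YPD; toxicant added at log phase at growth-inhibitory, non-lethal levels for 2 h, untreated cells as control. Poly(A) mRNA reverse-transcribed with Cy3/Cy5-dUTP, hybridized to whole-genome chip at 65° C >12 h; value is fluorescence ratio versus untreated.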",
  "data": [
    {"smiles": "C[S+](C)[O-]", "note": "[(15), dimethylsulfoxide]", "values": [
      {"measurement": "The level of expressed mRNA in the presence of chemical substance/absence: YML041C", "setting": "gene YML041C", "value": 1.0},
      {"measurement": "The level of expressed mRNA in the presence of chemical substance/absence: YML079W", "setting": "gene YML079W", "value": 0.3},
      {"measurement": "level of expressed mRNA in the presence of chemical substance/in its absence", "setting": "gene YML110C", "value": 1.3},
      {"measurement": "The level of expressed mRNA in the presence of chemical substance/absence: YML118W", "setting": "gene YML118W", "value": 2.2},
      {"measurement": "The level of expressed mRNA in the presence of chemical substance/absence: YMR068W", "setting": "gene YMR068W", "value": 2.2},
      {"measurement": "The level of expressed mRNA in the presence of chemical substance/absence: YMR071C", "setting": "gene YMR071C", "value": 0.8},
      {"measurement": "level of expressed mRNA in the presence of chemical substance/in its absence", "setting": "gene YMR105C", "value": 0.9},
      {"measurement": "The level of expressed mRNA in the presence of chemical substance/absence: YMR114C", "setting": "gene YMR114C", "value": 1.2},
      {"measurement": "The level of expressed mRNA in the presence of chemical substance/absence: YMR115W", "setting": "gene YMR115W", "value": 1.2},
      {"measurement": "The level of expressed mRNA in the presence of chemical substance/absence: YMR160W", "setting": "gene YMR160W", "value": 1.5},
      {"measurement": "level of expressed mRNA in the presence of chemical substance/in its absence", "setting": "gene YMR189W", "value": 5.6},
      {"measurement": "The level of expressed mRNA in the presence of chemical substance/absence: YMR258C", "setting": "gene YMR258C", "value": 0.6},
      {"measurement": "level of expressed mRNA in the presence of chemical substance/in its absence", "setting": "gene YMR271C", "value": 0.6},
      {"measurement": "level of expressed mRNA in the presence of chemical substance/in its absence", "setting": "gene YMR272C", "value": 1.1},
      {"measurement": "level of expressed mRNA in the presence of chemical substance/in its absence", "setting": "gene YMR296C", "value": 6.7},
      {"measurement": "level of expressed mRNA in the presence of chemical substance/in its absence", "setting": "gene YNL012W", "value": 1.6},
      {"measurement": "The level of expressed mRNA in the presence of chemical substance/absence: YNL026W", "setting": "gene YNL026W", "value": 0.8},
      {"measurement": "level of expressed mRNA in the presence of chemical substance/in its absence", "setting": "gene YNL037C", "value": 0.9},
      {"measurement": "level of expressed mRNA in the presence of chemical substance/in its absence", "setting": "gene YNL045W", "value": 0.8},
      {"measurement": "The level of expressed mRNA in the presence of chemical substance/absence: YNL058C", "setting": "gene YNL058C", "value": 2.2},
      {"measurement": "The level of expressed mRNA in the presence of chemical substance/absence: YNL063W", "setting": "gene YNL063W", "value": 0.7},
      {"measurement": "level of expressed mRNA in the presence of chemical substance/in its absence", "setting": "gene YNL104C", "value": 2.5},
      {"measurement": "level of expressed mRNA in the presence of chemical substance/in its absence", "setting": "gene YNL106C", "value": 3.3},
      {"measurement": "level of expressed mRNA in the presence of chemical substance/in its absence", "setting": "gene YNL130C", "value": 2.5},
      {"measurement": "level of expressed mRNA in the presence of chemical substance/in its absence", "setting": "gene YNL169C", "value": 3.4},
      {"measurement": "The level of expressed mRNA in the presence of chemical substance/absence: YNL176C", "setting": "gene YNL176C", "value": 0.8},
      {"measurement": "The level of expressed mRNA in the presence of chemical substance/absence: YNL181W", "setting": "gene YNL181W", "value": 1.0},
      {"measurement": "The level of expressed mRNA in the presence of chemical substance/absence: YNL191W", "setting": "gene YNL191W", "value": 1.0},
      {"measurement": "The level of expressed mRNA in the presence of chemical substance/absence: YNL194C", "setting": "gene YNL194C", "value": 0.5},
      {"measurement": "The level of expressed mRNA in the presence of chemical substance/absence: YNL200C", "setting": "gene YNL200C", "value": 0.8},
      {"measurement": "The level of expressed mRNA in the presence of chemical substance/absence: YNL212W", "setting": "gene YNL212W", "value": 0.9},
      {"measurement": "level of expressed mRNA in the presence of chemical substance/in its absence", "setting": "gene YNL231C", "value": 0.9},
      {"measurement": "The level of expressed mRNA in the presence of chemical substance/absence: YNL253W", "setting": "gene YNL253W", "value": 0.5},
      {"measurement": "The level of expressed mRNA in the presence of chemical substance/absence: YNL265C", "setting": "gene YNL265C", "value": 0.6},
      {"measurement": "The level of expressed mRNA in the presence of chemical substance/absence: YNL276C", "setting": "gene YNL276C", "value": 0.5},
      {"measurement": "level of expressed mRNA in the presence of chemical substance/in its absence", "setting": "gene YNL322C", "value": 3.7},
      {"measurement": "level of expressed mRNA in the presence of chemical substance/in its absence", "setting": "gene YNR002C", "value": 1.0},
      {"measurement": "level of expressed mRNA in the presence of chemical substance/in its absence", "setting": "gene YNR019W", "value": 1.6},
      {"measurement": "level of expressed mRNA in the presence of chemical substance/in its absence", "setting": "gene YNR033W", "value": 1.3},
      {"measurement": "The level of expressed mRNA in the presence of chemical substance/absence: YNR051C", "setting": "gene YNR051C", "value": 1.2},
      {"measurement": "level of expressed mRNA in the presence of chemical substance/in its absence", "setting": "gene YNR059W", "value": 1.0},
      {"measurement": "The level of expressed mRNA in the presence of chemical substance/absence: YOL026C", "setting": "gene YOL026C", "value": 0.9},
      {"measurement": "The level of expressed mRNA in the presence of chemical substance/absence: YOL030W", "setting": "gene YOL030W", "value": 0.9},
      {"measurement": "level of expressed mRNA in the presence of chemical substance/in its absence", "setting": "gene YOL058W", "value": 2.7},
      {"measurement": "level of expressed mRNA in the presence of chemical substance/in its absence", "setting": "gene YOL126C", "value": 1.4},
      {"measurement": "level of expressed mRNA in the presence of chemical substance/in its absence", "setting": "gene YOL143C", "value": 1.0},
      {"measurement": "level of expressed mRNA in the presence of chemical substance/in its absence", "setting": "gene YOL153C", "value": 1.2},
      {"measurement": "level of expressed mRNA in the presence of chemical substance/in its absence", "setting": "gene YOL157C", "value": 1.1},
      {"measurement": "The level of expressed mRNA in the presence of chemical substance/absence: YOR022C", "setting": "gene YOR022C", "value": 0.8},
      {"measurement": "The level of expressed mRNA in the presence of chemical substance/absence: YOR087W", "setting": "gene YOR087W", "value": 0.8},
      {"measurement": "The level of expressed mRNA in the presence of chemical substance/absence: YOR088W", "setting": "gene YOR088W", "value": 0.8},
      {"measurement": "level of expressed mRNA in the presence of chemical substance/in its absence", "setting": "gene YOR099W", "value": 1.5},
      {"measurement": "level of expressed mRNA in the presence of chemical substance/in its absence", "setting": "gene YOR130C", "value": 1.0},
      {"measurement": "level of expressed mRNA in the presence of chemical substance/in its absence", "setting": "gene YOR136W", "value": 1.2},
      {"measurement": "The level of expressed mRNA in the presence of chemical substance/absence: YOR138C", "setting": "gene YOR138C", "value": 1.0},
      {"measurement": "The level of expressed mRNA in the presence of chemical substance/absence: YOR155C", "setting": "gene YOR155C", "value": 0.9},
      {"measurement": "The level of expressed mRNA in the presence of chemical substance/absence: YOR253W", "setting": "gene YOR253W", "value": 1.1}
    ]}
  ]
}
